The values that follow come from patent US20110091570A1, “Compositions and Devices for Antisepsis and Anticoagulation” (priority 2008, published 2011).

One data set deals with T1, Fibrinogen (Homo sapiens, UniProt P02671+P02675+P02679).
T1 construct: from tissue; host or cells: citrated whole blood of volunteers
T1 sequence (P02671 20-629 limits assumed): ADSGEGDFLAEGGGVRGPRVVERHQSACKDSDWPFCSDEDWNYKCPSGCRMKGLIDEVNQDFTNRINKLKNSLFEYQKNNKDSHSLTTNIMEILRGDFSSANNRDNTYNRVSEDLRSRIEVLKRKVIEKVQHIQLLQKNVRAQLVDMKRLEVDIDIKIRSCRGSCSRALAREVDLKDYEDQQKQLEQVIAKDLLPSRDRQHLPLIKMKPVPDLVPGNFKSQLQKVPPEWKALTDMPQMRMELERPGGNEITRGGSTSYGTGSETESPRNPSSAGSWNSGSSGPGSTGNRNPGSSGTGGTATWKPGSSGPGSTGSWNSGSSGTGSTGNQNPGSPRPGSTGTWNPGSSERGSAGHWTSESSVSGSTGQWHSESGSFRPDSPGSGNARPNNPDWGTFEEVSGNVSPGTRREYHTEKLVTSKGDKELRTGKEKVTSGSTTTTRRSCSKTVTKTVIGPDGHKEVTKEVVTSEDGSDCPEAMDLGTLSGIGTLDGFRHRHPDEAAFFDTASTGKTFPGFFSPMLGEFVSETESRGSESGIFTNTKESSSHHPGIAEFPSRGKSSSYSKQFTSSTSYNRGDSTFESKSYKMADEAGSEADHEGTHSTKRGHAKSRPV
T1 sequence (P02675 31-491): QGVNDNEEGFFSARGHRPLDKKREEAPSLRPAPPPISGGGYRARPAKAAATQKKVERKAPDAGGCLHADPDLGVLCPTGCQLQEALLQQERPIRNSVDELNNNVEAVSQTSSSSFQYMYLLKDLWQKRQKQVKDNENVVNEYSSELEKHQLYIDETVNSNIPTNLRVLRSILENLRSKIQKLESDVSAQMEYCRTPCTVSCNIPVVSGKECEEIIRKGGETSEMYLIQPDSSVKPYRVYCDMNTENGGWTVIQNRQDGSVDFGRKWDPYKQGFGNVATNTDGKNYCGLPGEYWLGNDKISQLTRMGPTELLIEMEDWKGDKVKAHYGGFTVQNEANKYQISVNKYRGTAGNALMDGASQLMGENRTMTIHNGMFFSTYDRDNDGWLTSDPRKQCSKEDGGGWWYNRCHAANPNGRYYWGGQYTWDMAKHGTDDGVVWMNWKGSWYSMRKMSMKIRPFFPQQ
T1 sequence (P02679 27-453): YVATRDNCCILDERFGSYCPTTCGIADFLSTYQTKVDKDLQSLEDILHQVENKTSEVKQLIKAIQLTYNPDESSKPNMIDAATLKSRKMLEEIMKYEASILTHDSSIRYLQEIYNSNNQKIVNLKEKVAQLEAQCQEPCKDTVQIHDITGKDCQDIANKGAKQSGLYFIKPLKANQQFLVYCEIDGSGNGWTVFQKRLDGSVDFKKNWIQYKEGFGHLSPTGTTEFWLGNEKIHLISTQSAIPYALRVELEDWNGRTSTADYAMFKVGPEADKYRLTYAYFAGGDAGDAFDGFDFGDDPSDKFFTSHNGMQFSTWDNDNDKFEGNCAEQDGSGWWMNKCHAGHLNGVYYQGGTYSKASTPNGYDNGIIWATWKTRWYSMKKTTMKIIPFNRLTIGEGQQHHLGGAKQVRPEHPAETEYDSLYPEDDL
As to the kind of experiment: Fibrinogen, Multifibren U test. Conditions: for Fibrinogen, mean value: mean of 11 subjects. Format: biochemical. The procedure:
(§1) Whole blood was taken from a single volunteer and enriched with trisodium citrate (0.3 mL of a 0.106 molar solution per 3 mL whole blood) (S-Monovette®, Sarstedt, Nümbrecht, Germany). Portions of 1.8 mL citrate blood were mixed with 0.2 mL NCT in 0.9% saline. The following final (after dilution in blood) NCT concentrations were tested separately: 1% (55 mM); 0.5% (27.5 mM); 0.25% (13.75 mM); 0.1% (5.5 mM); 0.05% (2.75 mM); 0.025% (1.375 mM); and 0.01% (0.55 mM). A control without NCT was performed in parallel. The following commercial coagulation tests were performed according to the prescription of the manufacturer: prothrombin time (PT) was determined using Thromborel® S test (Dade Behring GmbH, Marburg, Germany), activated partial thromboplastin time (aPTT) was determined using Pathromtin* SL test (Dade Behring GmbH, Marburg, Germany); thrombin time (TT) was determined using BC Thrombin Reagent test (Dade Behring GmbH, Marburg, Germany); and fibrinogen was determined using Multifibren* U test (Dade Behring GmbH, Marburg, Germany).
(§2) Whole blood was taken from 11 volunteers and enriched with trisodium citrate (0.3 mL of a 0.106 molar solution per 3 mL whole blood) (S-Monovette®, Sarstedt, Nümbrecht, Germany). Commercial coagulation tests (as described in Example 6) were performed with the following samples: […]

Another data set concerns citrate blood. As to the kind of experiment: Routine coagulation tests, overall anticoagulant effect. Format: biochemical, human. The procedure: Whole blood was taken from volunteers and enriched with trisodium citrate (0.3 mL of a 0.106 molar solution per 3 mL whole blood) (S-Monovette®, Sarstedt, Nümbrecht, Germany). Routine coagulation tests were performed on the following samples:
The following commercial coagulation tests were performed according to the prescription of the manufacturer: prothrombin time (PT) was determined using Thromborel® S test (Dade Behring GmbH, Marburg, Germany); activated partial thromboplastin time (aPTT) was determined using Pathromtin* SL test (Dade Behring GmbH, Marburg, Germany); and thrombin time (TT) was determined using BC Thrombin Reagent test (Dade Behring GmbH, Marburg, Germany).
as §1, §2

A further data set deals with Human Blood. To be noted: Stief et al. [Ref 27]; cited from earlier work.
Another data set deals with rabbit eyes. To be noted: rabbit eyes [Ref. 13]; cited from earlier work.
Another data set concerns human eyes. To be noted: human eyes [Ref. 13]; cited from earlier work.
The test system of data set [1] is omniresistant Pseudomonas aeruginosa. To be noted: NCT irrigations, three patients [Ref 18]; cited from earlier work.
Another data set concerns mice. Conditions: transtympanal injection of 0.1%, 1%, and 10% NCT, mice [Ref. 19]; cited from earlier work.

Values joined by “and” are separate entries in the source; they are usually repeats but may differ in a detail not shown here. Equal values may be shown once.

`O=S(=O)(O)CCNCl` [NCT, N-chlorotaurine]: the Fibrinogen is listed as 281.4 on Fibrinogen (Example 6, single volunteer, 0.01% (0.55 mM) NCT final); 199.4 at Fibrinogen (Example 6, single volunteer, 0.025% (1.375 mM) NCT final); “not detectable” at Fibrinogen (Example 6, single volunteer, 0.05% (2.75 mM) NCT final); “not detectable” on Fibrinogen (Example 6, single volunteer, 0.1% (5.5 mM) NCT final); “not detectable” at Fibrinogen (Example 6, single volunteer, 0.25% (13.75 mM) NCT final); “not detectable” on Fibrinogen (Example 6, single volunteer, 0.5% (27.5 mM) NCT final). Moreover, the Fibrinogen result was “not detectable” on Fibrinogen (Example 6, single volunteer, 1% (55 mM) NCT final); 170 mg/dL and 112 mg/dL and 240 mg/dL and 87 mg/dL and 194 mg/dL and 178 mg/dL and 226 mg/dL and 237 mg/dL and 224 mg/dL and 230 mg/dL and 215 mg/dL at Fibrinogen (Example 7, 0.01% NCT, individual subjects 1-11); 40 mg/dL at Fibrinogen (Example 7, 0.025% NCT, individual subjects 1-11). For the same compound, the “Fibrinogen, mean value” stood at 192.1 mg/dL at Fibrinogen (Example 7, 0.01% NCT) and 40.0 mg/dL at Fibrinogen (Example 7, 0.025% NCT). In addition, the “effect on the anticoagulant activity of heparin” value with citrate blood (Example 5, 1% NCT final concentration) is “does not counteract the anticoagulant activity of heparin”. Also, the “anticoagulant activity of NCT alone” value with citrate blood (Example 5, 1% NCT without heparin) was “has anticoagulant activity”. The anticoagulant effect entry in the data set with citrate blood (NCT 0.55 mmol/L) is “significant anticoagulant effect”; in the data set with citrate blood (NCT 1.375 mmol/L), “strong effect”. Further, the “concentration with anticoagulant effect (not below)” value in the data set on Human Blood was 2 to 3 mmol/L. Further, the “tolerability in topical and localized applications” value in the data set with rabbit eyes was “relatively safe and well-tolerated”; in the data set with human eyes it was “relatively safe and well-tolerated”. For the same compound, the “eradication of bacteria from the urinary bladder” value in data set [1] is “possible to eradicate bacteria from the urinary bladder”. For the same compound, in the data set with mice, the “damage of the inner ear” value was “did not cause damage of the inner ear”.
